# Source: publication PMC6747087, “Characterization of Tachyplesin Peptides and Their Cyclized Analogues to Improve Antimicrobial and Anticancer Properties” (International Journal of Molecular Sciences, 2019)
# Residues, ends and D or L forms follow the SMILES beside them.
# How the values were obtained:
# [1] = in vitro; details: 25% (v/v) human serum, 24 h, 37 °C, 50 µM peptide, RP-HPLC peak area vs time zero
# Protocol: The serum stability assay was carried out as previously described with some modifications. Briefly, tachyplesin variants were incubated in 25% (v/v) human serum diluted in phosphate-buffered saline (PBS) at a final concentration of 50 µM at 37 °C. Triplicates were collected at time 0 h and 24 h and the serum proteins were precipitated with acetonitrile (1:3 ratio) supplemented with 3% TFA. Samples were kept on ice for 10 min before centrifugation at 17,000× g for 10 min at 4 °C. The peptide containing supernatant of each sample was harvested and quantified using RP-HPLC (10 to 45% solvent B, 1%/min gradient). The percentage of peptide stability in human serum was calculated by comparing the area of the peptide peak obtained at 24 h to that at time 0 h. A linear peptide containing 18 amino acid residues ([…]) was included as a control susceptible to proteolytic degradation.
# [2] = Activity against preformed biofilm (resazurin metabolic activity); assay type: cell-based, Staphylococcus aureus; details: 24 h preformed biofilm, 4 h peptide treatment; read-out: CC50 (reduction of 50% of the metabolically active cell population)
# Protocol: S. aureus ATCC 6538 (1 × 10^6 cfu/mL) was cultured in Tryptic Soy Broth, containing 0.25% (w/v) glucose and incubated in 96-well microtiter flat-bottomed polystyrene plates for 24 h at 37 °C. Preformed biofilms were then washed with Mueller Hinton Broth to remove non-adherent cells. Two-fold serial dilutions of each peptide (highest concentration tested was 32 µM and lowest was 0.25 µM) were added to the biofilms for 4 h. Untreated 24 h preformed biofilms were used as a control. The metabolic activity of biofilm-embedded cells was determined using a resazurin reduction fluorometric assay as previously described.
# [3] = tested on: human red blood cells (RBCs); test: Hemolytic activity against human red blood cells; assay type: cell-based; details: human RBCs 0.25% (v/v), 1 h, 37 °C; mean ± SEM
# Protocol: (§1) A small amount of blood was collected from three healthy human donors. The blood was immediately diluted in PBS and centrifuged 4–5 times for 1 min at 4000 rpm to wash and separate the human red blood cells (RBCs). RBCs suspension (0.25% (v/v) in PBS) was incubated with peptides with two-fold serial dilutions of the peptide (highest concentration tested was 128 µM, and the lowest was 0.25 µM) in a 96-well plate. Melittin, a membrane disruptive peptide, was used as control. The plates were incubated for 1 h at 37 °C. After incubation, the plates were centrifuged for 5 min at 1000 rpm to pellet any non-lysed RBCs. A total of 100 µL of the supernatant were transferred to a new 96-well plate. The hemoglobin released into the supernatant from lysed cells was measured by absorbance at 415 nm using the Tecan infinite M1000Pro multiplate reader (Männedorf, Switzerland).
# [4] = tested on: E. coli ATCC 25922; test: MIC against planktonic bacteria (resazurin); assay type: cell-based, Escherichia coli; details: Mueller Hinton Broth
# Protocol: (§2) S. aureus ATCC 25923, S. aureus ATCC 6538, E. coli ATCC 25922, and E. coli DC2 CGSC 7139 were grown in Mueller Hinton Broth (Sigma Aldrich, St. Luis, USA). Bacterial cultures in the exponential growth phase were diluted to an OD600nm of 0.001 and seeded into 96-well plates. Peptides at different concentrations, starting at 64 µM and with two-fold serial dilutions (i.e., 64, 32, 16, 8, 4, 2, 1, 0.5, 0.25, 0.125 and 0.0625 µM), were incubated with cells; 0.05% (v/v) resazurin was added to the cultures the next day and the conversion to resorufin was measured after 1 h of incubation at 37 °C using a 565 nm excitation and 584 nm emission wavelength, as above.
# [5] = tested on: E. coli DC2 CGSC 7139; test: MIC against planktonic bacteria (resazurin); assay type: cell-based, Escherichia coli; details: Mueller Hinton Broth
# Protocol: as §2
# [6] = tested on: S. aureus ATCC 6538; test: MIC against planktonic bacteria (resazurin); assay type: cell-based, Staphylococcus aureus; details: Mueller Hinton Broth
# Protocol: as §2
# [7] = tested on: S. aureus ATCC 25923; test: MIC against planktonic bacteria (resazurin); assay type: cell-based, Staphylococcus aureus; details: Mueller Hinton Broth
# Protocol: as §2
# [8] = Cytotoxicity assay (resazurin); assay type: cell-based, Human; details: ± SEM, n ≥ 3
# Protocol: Cells were grown in cell culture flasks and incubated in a humidified atmosphere (5% CO2, 37 °C). The cancer cell lines HeLa and the control cell line HaCaT were grown in a DMEM medium supplemented with 1% (v/v) penicillin/streptomycin and 10% (v/v) fetal bovine serum (FBS). The cancer cell lines MM96L, HT144 and WM164 were grown in a RPMI medium supplemented with 1% (v/v) penicillin/[…], 10% (v/v) FBS, 20 mM L-glutamine, and 10 mM sodium pyruvate. Cell cultures were maintained by dilution upon reaching confluence, each 48–72 h. More information about the cell lines is available in Tables S2 and S3.
# Cells were seeded into 96-well flat-bottom plates at 5 × 10^3 cells/well and incubated overnight. The medium was removed and replaced with 90 µL serum-free medium, 10 µL of 10x concentrated peptide solutions in PBS were added. PBS was added as blank and 0.1% (v/v) Triton X-100 was used to establish 100% of cell death. After 2 h incubation at 37 °C, 10 µL of filtered 0.05% (w/v) resazurin solution was added to each well [70]. Resazurin is converted to the pink and fluorescent compound resorufin by viable cells. After incubation overnight, the fluorescence intensity (λex = 565 nm and λem = 584 nm) was measured with the Tecan infinite M1000Pro multiplate reader (Männedorf, Switzerland).
# [9] = Hemolytic activity against human red blood cells; assay type: cell-based; details: at 64 µM peptide, human RBCs; read-out: RBCs lysed (hemolysis)
# Protocol: as §1
# [10] = HT144, 2 h peptide in serum-free medium
# [11] = HaCaT non-cancerous control, 2 h peptide in serum-free medium
# [12] = HeLa, 2 h peptide in serum-free medium
# [13] = MM96L, 2 h peptide in serum-free medium
# [14] = WM164, 2 h peptide in serum-free medium
SMILES,peptide remaining in human serum [1],Concentration reducing biofilm metabolic activity by 50% [2] [µM],HC50 (concentration required to induce 50% lysis in RBCs) [3] [µM],MIC [4] [µM],MIC [5] [µM],MIC [6] [µM],MIC [7] [µM],"CC50 [8, 10] [nM]","CC50 [8, 11] [nM]","CC50 [8, 12] [nM]","CC50 [8, 13] [nM]","CC50 [8, 14] [nM]",hemolysis [9] [%]
"CC[C@H](C)[C@@H]1NC(=O)CNC(=O)[C@H](CCCNC(=N)N)NC(=O)[C@H](Cc2ccc(O)cc2)NC(=O)[C@@H]2CSSC[C@H](NC1=O)C(=O)N[C@@H](Cc1ccc(O)cc1)C(=O)N[C@@H](CCCNC(=N)N)C(=O)N[C@@H](CCCNC(=N)N)C(=O)N[C@H]1CSSC[C@H](NC(=O)[C@H](Cc3c[nH]c4ccccc34)NC(=O)[C@H](CCCCN)NC(=O)CNC(=O)[C@H](CCCNC(=N)N)NC1=O)C(=O)N[C@@H](Cc1ccccc1)C(=O)N[C@@H](CCCNC(=N)N)C(=O)N[C@@H](C(C)C)C(=O)N2 [cTI, Cyclic Tachyplesin I] (HELM PEPTIDE1{C.F.R.V.C.Y.R.G.I.C.Y.R.R.C.R.G.K.W}$PEPTIDE1,PEPTIDE1,1:R3-14:R3|PEPTIDE1,PEPTIDE1,5:R3-10:R3|PEPTIDE1,PEPTIDE1,1:R1-18:R2$$$V2.0)",did not degrade,17.8 ± 3.6,106.9 ± 21.0,1,4,8,2 to 8,1400 ± 100,7900 ± 500,6700 ± 600,1300 ± 100,2700 ± 100,
"CC[C@H](C)[C@@H]1NC(=O)CNC(=O)[C@H](CCCNC(=N)N)NC(=O)[C@H](Cc2ccc(O)cc2)NC(=O)[C@@H]2CSSC[C@H](NC1=O)C(=O)N[C@@H](Cc1ccc(O)cc1)C(=O)N[C@@H](CCCNC(=N)N)C(=O)N[C@@H](CCCCN)C(=O)N[C@H](C(=O)N[C@@H](CCCNC(=N)N)C(N)=O)CSSC[C@H](NC(=O)[C@H](Cc1c[nH]c3ccccc13)NC(=O)[C@@H](N)CCCNC(=N)N)C(=O)N[C@@H](Cc1ccccc1)C(=O)N[C@@H](CCCNC(=N)N)C(=O)N[C@@H](C(C)C)C(=O)N2 [TII, Tachyplesin II] (HELM PEPTIDE1{R.W.C.F.R.V.C.Y.R.G.I.C.Y.R.K.C.R.[am]}$PEPTIDE1,PEPTIDE1,3:R3-16:R3|PEPTIDE1,PEPTIDE1,7:R3-12:R3$$$V2.0)",,23.1 ± 2.9,55.4 ± 6.6,0.125 to 0.5,0.5 to 1,4 to 8,1 to 4,2000 ± 100,3700 ± 200,18000 ± 3900,1600 ± 100,1600 ± 100,56
"CC[C@H](C)[C@@H]1NC(=O)CNC(=O)[C@H](CCCNC(=N)N)NC(=O)[C@H](Cc2ccc(O)cc2)NC(=O)[C@@H]2CSSC[C@H](NC1=O)C(=O)N[C@@H](Cc1ccc(O)cc1)C(=O)N[C@@H](CCCNC(=N)N)C(=O)N[C@@H](CCCCN)C(=O)N[C@H]1CSSC[C@H](NC(=O)[C@H](Cc3c[nH]c4ccccc34)NC(=O)[C@H](CCCNC(=N)N)NC(=O)CNC(=O)[C@H](CCCNC(=N)N)NC1=O)C(=O)N[C@@H](Cc1ccccc1)C(=O)N[C@@H](CCCNC(=N)N)C(=O)N[C@@H](C(C)C)C(=O)N2 [cTII, Cyclic Tachyplesin II] (HELM PEPTIDE1{C.F.R.V.C.Y.R.G.I.C.Y.R.K.C.R.G.R.W}$PEPTIDE1,PEPTIDE1,1:R3-14:R3|PEPTIDE1,PEPTIDE1,5:R3-10:R3|PEPTIDE1,PEPTIDE1,1:R1-18:R2$$$V2.0)",,19.4 ± 1.5,64.1 ± 9.4,1 to 2,4 to 8,8,2 to 8,800 ± 40,2400 ± 300,7200 ± 400,1100 ± 100,2400 ± 300,
"CC[C@H](C)[C@H](NC(=O)[C@H](CC(C)C)NC(=O)[C@H](CCC(N)=O)NC(=O)CNC(=O)[C@H](CO)NC(=O)CNC(=O)CNC(=O)CNC(=O)CNC(=O)[C@@H](N)CCCCN)C(=O)N[C@@H](CC(=O)O)C(=O)N[C@@H](CO)C(=O)N[C@@H](CCSC)C(=O)N[C@@H](C)C(=O)N[C@@H](CC(N)=O)C(=O)N[C@@H](CO)C(=O)N[C@@H](Cc1ccccc1)C(=O)N[C@H](C(=O)O)C(C)C [KGGGGSGQLIDSMANSFV, reference compound] (H-KGGGGSGQLIDSMANSFV-OH)",fully degraded,,,,,,,,,,,,
"CC[C@H](C)[C@@H]1NC(=O)CNC(=O)[C@H](CCCNC(=N)N)NC(=O)[C@H](Cc2ccc(O)cc2)NC(=O)[C@@H]2CSSC[C@H](NC1=O)C(=O)N[C@@H](Cc1ccc(O)cc1)C(=O)N[C@@H](CCCNC(=N)N)C(=O)N[C@@H](CCCCN)C(=O)N[C@H]1CSSC[C@H](NC(=O)[C@H](Cc3c[nH]c4ccccc34)NC(=O)[C@H](CCCCN)NC(=O)CNC(=O)[C@H](CCCNC(=N)N)NC1=O)C(=O)N[C@@H](Cc1ccccc1)C(=O)N[C@@H](CCCNC(=N)N)C(=O)N[C@@H](C(C)C)C(=O)N2 [cTIII, Cyclic Tachyplesin III] (HELM PEPTIDE1{C.F.R.V.C.Y.R.G.I.C.Y.R.K.C.R.G.K.W}$PEPTIDE1,PEPTIDE1,1:R3-14:R3|PEPTIDE1,PEPTIDE1,5:R3-10:R3|PEPTIDE1,PEPTIDE1,1:R1-18:R2$$$V2.0)",,18 ± 1.4,>128,1 to 2,4 to 8,8,2 to 8,900 ± 30,7500 ± 300,9300 ± 400,1700 ± 100,1300 ± 100,
